Results taken from US6352709B1, “Localized use of nitric oxide-adducts to prevent internal tissue damage” (NitroMed, Inc., priority 1993, dated 2002).

What was measured:
[1] = test system: [^111In]-labeled platelets; assay: [111In]-labeled platelet binding to balloon-injured femoral arteries; assay type: in vivo, rabbit; conditions: for adhesion of [^111In]-labelled platelets to injured vessels: local administration 15 minutes, 15 minutes recirculation, n=6
Protocol: Femoral arteries were isolated and balloon injured as described in Example 1. During paired local administration of polythiolated S-nitroso-albumin and polythiolated albumin, [^111In]-labeled platelets were administered intravenously and allowed to circulate after flow was reestablished in the treated arteries. [^111In]-labeled platelet binding was determined by quantification of radioactivity after flow was re-established for a period of 15 minutes. Non-specific [^111In]-labeled platelet binding (Uninjured Carotid Artery) was determined from uninjured carotid artery harvested with femoral arteries. Data are presented as mean +/− SEM per gram of wet tissue weight and are derived from six animals. *P<0.05, PS-BSA vs. pS-NO-BSA.
(§1) Animal Preparation: All animal preparations were performed within the institutional guidelines of the Brockton/West Roxbury Department of Veteran Affairs Medical Center and Boston University Medical Center, and in accordance with the guiding principles of the American Physiological Society. New Zealand white rabbits (3.5-4.2 kg) of either sex were premedicated with 5 mg/kg intramuscular (IM) xylazine hydrochlolide (Miles Pharmaceuticals, Shawnee Mission, Kans.), and 0.1 mg/kg subcutaneous (SC) atropine sulfate (Lyphomed, Deerfield, Ill.) fifteen minutes prior to the induction of anesthesia. Anesthesia was induced with 40 mg/kg IM ketamine hydrochloride (Fort Dodge Laboratories, Fort Dodge, Ind.) and 5 mg/kg IM acepromazine maleate (Aveco Company, Inc., Fort Dodge, Ind.). Additional doses of ketamine hydrochloride were administered as necessary to maintain anesthesia. For survival studies, 100,000 U penicillin G (Apothecon of Bristol-Myers Squibb, Princeton, N.J.), was administered IM perioperatively. The skin over the femoral arteries was next infiltrated with 1% lidocaine (Astra Pharmaceuticals, Inc., Westborough, Mass.) and the common femoral arteries were exposed from the inguinal ligament to the superficial femoral artery. […]

[2] = test system: balloon-injured rabbit femoral artery; assay: Neointimal proliferation after balloon injury of femoral artery (morphometry); assay type: in vivo
Protocol: Femoral arteries were isolated and balloon injured as described below. pS-BSA or pS-NO-BSA were applied in a paired fashion directly into the arterial lumen for 15 minutes and then blood flow was re-established. […] Neointimal proliferation is reported as the absolute neointimal area in FIG. 5A and as a ratio of neointima/media in FIG. 5B in 4-6 segments from each artery. Data are expressed as mean +/− SEM and are derived from 15 vessels in the BSA and S-NO-BSA groups, 11 vessels in the PS-BSA group, 7 vessels in the PS-NO-BSA and SHAM groups, and 5 in the SNP group. *P<0.05, pS-NO-BSA vs. PS-BSA. +/+P<0.05 Sodium nitroprusside vs. pS-BSA for both FIGS. 5A and 5B.
Animal Preparation: All animal preparations were performed within the institutional guidelines of the Brockton/West Roxbury Department of Veteran Affairs Medical Center and Boston University Medical Center, and in accordance with the guiding principles of the American Physiological Society. New Zealand white rabbits (3.5-4.2 kg) of either sex were premedicated with 5 mg/kg intramuscular (IM) xylazine hydrochlolide (Miles Pharmaceuticals, Shawnee Mission, Kans.), and 0.1 mg/kg subcutaneous (SC) atropine sulfate (Lyphomed, Deerfield, Ill.) fifteen minutes prior to the induction of anesthesia. Anesthesia was induced with 40 mg/kg IM ketamine hydrochloride (Fort Dodge Laboratories, Fort Dodge, Ind.) and 5 mg/kg IM acepromazine maleate (Aveco Company, Inc., Fort Dodge, Ind.). Additional doses of ketamine hydrochloride were administered as necessary to maintain anesthesia. For survival studies, 100,000 U penicillin G (Apothecon of Bristol-Myers Squibb, Princeton, N.J.), was administered IM perioperatively. The skin over the femoral arteries was next infiltrated with 1% lidocaine (Astra Pharmaceuticals, Inc., Westborough, Mass.) and the common femoral arteries were exposed from the inguinal ligament to the superficial femoral artery. Arteries were cleared of connective tissue, side branches were ligated, and the superficial femoral artery was suspended with silk ties. A 1.5-to-2.0 cm length of femoral artery was isolated from the circulation proximally and distally with neurosurgical microaneurysm clips. The superficial femoral-artery was cannulated with a 2F Fogarty balloon catheter (American Edwards Laboratories, Santa Ana, Calif.) that was passed into the isolated segment of femoral artery. The balloon was inflated with sufficient air to generate slight resistance and withdrawn three times. A 20 g angiocath was then inserted in the arteriotomy and 1 ml of 25.8 mg/ml PS-NO-BSA or 49.2 mg/ml S-NO-BSA was administered over 15 minutes. The contralateral femoral artery was prepared identically and an appropriate control (25.8 mglml pS-BSA, 49.2 mg/ml BSA or 0.66 mg/ml sodium nitroprusside) was administered. For binding studies, 0.5 ml of [^125I]-labeled nitrosylated albumin or control was administered. Following administration of the agent, the superficial femoral artery was ligated and flow reestablished. Sham-operated animals underwent surgical exposure and sidebranch ligation, but no balloon injury was performed or local delivery administered. The area of balloon injury was marked by surgical staples in the adjacent muscle fascia. For chronic studies, the incision was closed with subcuticular absorbable suture and the animals allowed to recover. For acute studies, blood was allowed to circulate through the treated areas for 15 minutes prior to vessel harvest. In some experiments, a distant control vessel, the right carotid artery, was isolated and harvested without any other manipulation.
A 7F plastic cannula was inserted into the abdominal aorta and the vessels perfused clear with saline followed by fixation at 100 mm Hg pressure with 10% buffered formalin. The vessels were stored in 10% buffered formalin and the samples paraffin-embedded and microtome-sectioned. […]

[3] = test system: proliferating cell nuclear antigen; assay: PCNA staining of proliferating cells 7 days after balloon injury; assay type: in vivo, rabbit; conditions: 7 days after injury
Protocol: In a separate set of animals, vessels were perfusion-fixed with 10% buffered formalin seven days after injury and processed for analysis of proliferating cells within 12 hours as described above. Sections were stained for proliferating cell nuclear antigen and adjacent sections were stained with hematoxylin and eosin. Five representative sections from each segment were examined. Total nuclei were counted from the hematoxylin and eosin slides and percent PCNA positive cells were defined as the number of PCNA-positive nuclei divided by the total number of nuclei multiplied by 100.

platelet cGMP = assay: Platelet cGMP in platelet-rich plasma exposed ex vivo to treated vessel rings; assay type: cell-based, human; conditions: one-minute exposure of PRP to treated vessel rings, 10 μM isobutylmethylxanthine, n=14
Protocol: Rabbit femoral arteries were isolated and balloon-injured as described with reference to FIG. 4. After paired local administration of polythiolated S-nitroso-albumin and polythiolated albumin for 15 minutes, the vessels were harvested and divided into 2 mm rings. The rings were then immersed in 100 μl of platelet-rich plasma containing 10 μM 3-isobutyl-1-methylxanthine and were incubated for 1 minute ex-vivo. An equal volume of ice-cold 10% trichloroacetic acid was added to each aliquot and the sample vortexed. Platelet cGMP assay was then performed as described in “Methods.” Data are expressed as mean +/− SEM. *P<0.05.
cGMP analysis: Whole blood was obtained from fasting human volunteers and platelet-rich plasma (PRP) was prepared by centrifugation. Platelet counts were determined using a Coulter counter model ZM (Coulter Diagnostics, Hileah, Fla.). After balloon injury and treatment with pS-NO-BSA or PS-BSA, arterial segments were harvested and 2-mm segments were incubated with 100 μl of PRP containing 10 μM isobutylmethylxanthine. After 1 minute, an equal volume of ice-cold 10% trichloroacetic acid was added to each aliquot and the sample vortexed. Enzyme-linked immunoassay of cGMP was then performed (Cayman Chemical Company, Ann Arbor, Mich.). […]

vessel cGMP = assay: Vessel tissue cGMP after local treatment of balloon-injured artery; assay type: in vivo, rabbit; conditions: treated balloon-injured vessel segments, n=3
Protocol: cGMP analysis: Whole blood was obtained from fasting human volunteers and platelet-rich plasma (PRP) was prepared by centrifugation. Platelet counts were determined using a Coulter counter model ZM (Coulter Diagnostics, Hileah, Fla.). After balloon injury and treatment with pS-NO-BSA or PS-BSA, arterial segments were harvested and 2-mm segments were incubated with 100 μl of PRP containing 10 μM isobutylmethylxanthine. After 1 minute, an equal volume of ice-cold 10% trichloroacetic acid was added to each aliquot and the sample vortexed. Enzyme-linked immunoassay of cGMP was then performed (Cayman Chemical Company, Ann Arbor, Mich.). Separate 2 mm vessel segments were also assayed for tissue CGMP after treatment with ice-cold 10% trichloroacetic acid and sonication (Heat Systems-Utrasonics, Inc., Plainview, N.Y.).

[4] = test system: balloon-injured rabbit femoral artery; assay: [125I]-S-NO-BSA binding to balloon-injured femoral artery; assay type: in vivo
Protocol: Rabbit femoral arteries were isolated and balloon-injured as described in Example 1 and [^125I]-S-NO-BSA applied either directly into the injured artery (local) or injected intraarterially via the opposite femoral artery (systemic). [^125I]-S-NO-BSA binding was determined by quantification of radioactivity after flow was reestablished for a period of 15 minutes. Non-specific [^125I]-S-NO-BSA binding (sham) was determined from uninjured carotid artery harvested simultaneously with femoral arteries. Data are presented as mean +/− SEM per gram of wet tissue weight, and are derived from four animals. *P<0.0.029, local vs. systemic delivery and +/+P<0.05, systemic injured vs. sham.
Preparation of [^125I]-labeled S-NO-BSA and [^111In] labeled platelets: BSA (0.1 mg/ml) was combined with two IODO-BEADS and 0.1 mCi of Na[^125I]. The solution was incubated for 45 minutes and unincorporated Na[^125I] was removed by gel filtration with Sephadex G25 equilibrated with TBS containing 0.1 mg/ml BSA. […] [^111In]-labeling of platelets was performed after the method of Wistow and colleagues.^(17)
as §1, with “perioperatively.” for “perioperatively. The skin over the femoral arteries was next infiltrated with 1% lidocaine (Astra Pharmaceuticals, Inc., Westborough, Mass.) and the common femoral arteries were exposed from the inguinal ligament to the superficial femoral artery.”

[5] = 14 days after balloon injury, local delivery 15 minutes
[6] = 14 days after balloon injury, n=7

Substance | adhesion of [^111In]-labelled platelets to injured vessels [1] | neointima/media ratio ([2]; 7 days after injury, n=5) | neointimal area ([2]; 7 days after injury, n=5) | neointima/media ratio [2, 5] | neointimal area [2, 5] | percent of proliferating (PCNA positive) cells [3] | platelet cGMP (platelet cGMP) | vessel cGMP levels (vessel cGMP) | reduction of platelet adhesion compared to control ([1]; local administration, injured femoral artery) | reduction of neointima/media ratio vs control [2, 6] | reduction of neointimal area vs control [2, 6] | binding to injured femoral artery, local delivery ([4]; applied directly into injured artery, 15 minutes flow, n=4) | binding to injured femoral artery, systemic delivery ([4]; injected intraarterially via opposite femoral artery, 15 minutes flow, n=4) | increase in binding, local vs systemic delivery ([4]; injured femoral artery)
pS-BSA: thiolated bovine serum albumin, non-nitrosylated control for pS-NO-BSA [reference compound] | 71.3+/−40.4 ×10^3 cpm/gm | 0.068±0.027 | 0.258+/−0.19 ×10^5 μm^2 | 0.85+/−0.122 | 2.24+/−0.328 ×10^5 μm^2 | 30.1% +/−5.9 | 4.11+/−0.9 pmol 10^8 platelets | 0.283+/−0.23 pmol/mg protein |  |  |  |  |  | 
pS-NO-BSA: polythiolated S-nitroso-albumin; thiolated BSA nitrosylated with NaNO2 in HCl | 16.3+/−6.2 ×10^3 cpm/gm | 0.032±0.005 | 0.124±0.06 ×10^5 μm^2 | 0.196 +/−0.66 | 0.41+/−0.11 ×10^5 μm^2 | 37.8% +/−5.9 | 19.9+/−3.3 pmol 10^8 platelets | 0.48+/−0.46 pmol/mg protein | over four-fold | 77% | 81% |  |  | 
[^125I]-S-NO-BSA: [125I]-labeled S-nitroso-albumin used for binding studies |  |  |  |  |  |  |  |  |  |  |  | 140.4+/−3.9 ×10^3 cpm/gm | 5.4+/−0.9 ×10^3 cpm/gm | 26 fold
